Patent publication US20240269157A1, “COMPOSITIONS AND METHODS FOR OVERCOMING MICROENVIRONMENT-MEDIATED RESISTANCE VIA E-SELECTIN TARGETING” (GLYCOMIMETICS, INC., priority 2021, published 2024)

Columns and labels:
leukemia cells in the BM = settings: in vivo; Zhang et al., 2016; cited from earlier work
AML cells in bone marrow = assay: Intra-vital 2-photon imaging of AML cell motility in bone marrow; type: in vivo, triple reporter mice; settings: from 2.2 μm/min, p<0.001; i.v. administration
Text: (§1) Intra-vital imaging was employed to investigate the effects of Compound B on AML cell motility in the bone marrow of triple reporter mice (Blood: dextran-TRITC; Host T-cells: DsRed; Host myeloid CD11 cells: EYFP) injected with AML cells carrying a turquoise fluorescent protein reporter gene. […] Individual cells were dislodged from the niche and traveled long-distance (FIG. 17C). The combined inhibition of E-selectin and CXCR4 depleted bone marrow vascular niche areas of leukemia cells.

[1] = test system: patient-derived primary AML xenograft (JAK2 and c-Kit); assay: PDX model (mutations in JAK2 and c-Kit), LSC retention and CyTOF of BM cells; type: in vivo, mice
Text: as §1
In order to better understand how the augmented AML mobilization improves the efficacy of AML therapy, BM cells from PDX mice treated for 2 weeks with Compound A, Compound B, venetoclax/HMA (Ven/HMA), and their combinations were analyzed by single-cell proteomics (CyTOF). […] However, pharmacological antagonists of E-selectin (Compound A) or E-selectin/CXCR4 (Compound B) protected endothelial cells from Ven/HMA-induced detrimental insults through upregulation of survival signaling cascades, including pAKT, pERK, pMAPK and […] eNOS expression in endothelial cells compared to Ven/HMA treatment alone.

[2] = test system: leukemia cells with ECs and MSCs; settings: Zhang et al., 2016, cited from earlier work
luc-MV4.11 cells = assay: MV4.11 AML model survival; type: in vivo, NSG mice; settings: 40 mg/kg Compound A i.p., 100 mg/kg venetoclax oral, 14 days once daily
Experimental: To evaluate the efficacy of targeting E-selectin with Compound A in combination with venetoclax, an in vivo MV4.11 AML model was employed (FIG. 16).
luc-MV4.11 cells (5×10^6 cells/mouse) were transplanted into NSG mice. Mice were divided into four groups: vehicle treatment only; 40 mg/kg of Compound A (intraperitoneal, 14 day once daily); 100 mg/kg venetoclax (oral, 14 days once daily), and a combination of 40 mg/kg Compound A and 100 mg/kg venetoclax. Drug treatment was initiated on day 10 post-transplantation.

[3] = in combination with Ven/HMA, 2 weeks, CyTOF of BM cells

In the case of `CCC1CC(C(=O)NCCNCc2ccc(CN3CCCNCCNCCCNCC3)c(Br)c2)CC(OC2OC(CO)C(O)C(O[C@@H](CC3CCCCC3)C(=O)O)C2NC(C)=O)C1OC1OC(C)C(O)C(O)C1O` (stereo partly drawn) [Compound B], the “leukemia cells in the BM” value (leukemia cells in the BM) is given as “effectively reduced”, the AML cell motility (AML cells in bone marrow) is given as 5.4 μm/min and the “levels of E-selectin ligand, mTOR, pFAK, pRb, cMyc” value [1, 3] is given as “diminished”. The “p21 and cleaved caspase3” value [1, 3] was “increasing”, the “protection of MSC” value ([1]; mouse, in vivo) was “protected” and the “protection of endothelial cells from Ven/HMA-induced detrimental insults” value ([1]; upregulated pAKT, pERK, pMAPK, decreased eNOS vs Ven/HMA alone) was “protected”. The “leukemia cell adhesion to ECs and MSCs” value [2] was “markedly reduced” and the “BM-mediated protection of leukemic cells during FLT3-targeted therapy” value ([2]; in vitro) was “eliminated”.
For `CC1(C)CCC(CN2CCN(c3ccc(C(=O)NS(=O)(=O)c4ccc(NCC5CCOCC5)c([N+](=O)[O-])c4)c(Oc4cnc5[nH]ccc5c4)c3)CC2)=C(c2ccc(Cl)cc2)C1` [venetoclax], the “median survival time (MST)” value (luc-MV4.11 cells) was 46 days.
